pIC50: −log10 of the molar value.
What was measured:
[1] = biological target: T1, PDE4B (Homo sapiens, UniProt Q07343); assay: Recombinant PDE activity, scintillation proximity assay: PDE4B; type: biochemical
T1 construct: PDE4B NG_029038: AA 152–484; made in house; host or cells: SF9 insect cells (baculovirus, Bac-To-Bac, pFastbac)
Procedure: (§1) For the preparation of human recombinant PDEs of interest, the Bac-To-Bac baculoviral expression system from Invitrogen (Carlsbad, CA, United States) was used according to the instruction manual. […] The plasmids were transformed into DH10Bac bacteria, SF9 insect cells were transfected with the bacmid DNA, and the resulting baculoviruses were stored and used for further rounds of infections. For protein production, SF9 cells were infected until a cytopathic effect was visible (after about 72 h), the SF9 cells were harvested and broken up by 3 freeze/thaw cycles, and by shearing 10 times through a 0.1 mm cannula using a syringe. […] The Phosphodiesterase Scintillation Proximity Assays (TRKQ7090 for [^3H]cAMP, GE Healthcare Europe GmbH, Chalfont St Giles, United Kingdom, and TRKQ7100 for [^3H]cGMP, Perkin Elmer, Waltham, MA, United States) were performed essentially according to the instruction manual. […] Assay solutions containing recombinant baculoviral-expressed PDE (to give an activity of 5.000–20.000 cpm corresponding to 5–20% of total activity added), 50 mmol/L Tris/HCl pH 7.5, 8.3 mmol/L MgCl2, 1.7 mmol/L EGTA, and 10 µL radiolabeled substrate (0.05 µCi in H2O) were incubated for 1 h at 30°C (final volume 100 μL).

[2] = biological target: T2, PDE4C (Homo sapiens, UniProt Q08493); assay: Recombinant PDE activity, scintillation proximity assay: PDE4C; type: biochemical; details: substrate [3H]cAMP, means from n independent experiments, read-out: IC50 PDE4C2
T2 construct: made in house; host or cells: SF9 insect cells (baculovirus, Bac-To-Bac, pFastbac)
Procedure: as §1

[3] = biological target: T3, PDE2A (Homo sapiens, UniProt O00408); assay: PDE2A inhibition screen at Eurofins Cerep; type: biochemical; details: screened at Eurofins Cerep
T3 construct: Eurofins Cerep

[4] = test system: phytohemagglutinin P-induced IL-2 release; assay: Phytohemagglutinin P-induced IL-2 release in human PBMCs; type: cell-based; details: 10 µg/mL PHA-P for 20 h
Procedure: Blood was donated by internal donors at the Center for Occupational Health at Boehringer Ingelheim in Biberach an der Riss, Germany; the donors provided signed informed consent that allows use for scientific purposes. All research was performed in accordance with the principles stated in the Declaration of Helsinki. Ethical approval was provided by the Federal State Medical Association of Baden-Württemberg, reference no. F-2016–121. For preparation of peripheral blood mononuclear cells (PBMCs), 200 mL freshly drawn human blood from healthy donors was mixed with 50 mL acid-citrate-dextrose solution (38 mmol/L citric acid, 75 mmol/L tri-sodium citrate and 121 mmol/L glucose) and 50 mL Hanks buffered saline solution (Thermo Fisher Scientific, Carlsbad, CA, United States), overlaid on Ficoll and centrifuged for 30 min at 300 x g. PBMCs were diluted in RPMI-1640 medium (Thermo Fisher Scientific) containing 6% (v/v) autologous plasma to a concentration of 5 × 10^6 cells/mL. […] Supernatants were taken and cytokines measured by enzyme-linked immunosorbent assay (ELISA; Becton Dickinson, Franklin Lakes, NJ, United States).

[5] = test system: LPS-stimulated IL-6 release; assay: LPS-stimulated IL-6 release in human whole blood; type: cell-based; details: high concentrations
Procedure: Heparinized whole blood was collected from the Aorta abdominalis of WI (Han) male rats (Charles River Laboratories, Sulzfeld, Germany) and from healthy male human donors, and treated with 1 µL (rat) or 2.5 µL (human) of BI 1015550 or vehicle [final DMSO concentration 0.5% (v/v)]. Final assay volumes were 200 μL (rat) and 500 μL (human). After incubation for 30 min at 37°C, 95% humidity, and 5% CO2, cultures were treated with LPS [final concentration 10 µg/mL (rat), 0.1 µg/mL (human)] or saline. After 7 h, plates were centrifuged at 3.200 × g at 4°C for 10 min and plasma was used for cytokine measurement. Meso Scale Discovery (MSD) (Rockville, MD, United States) rat and human pro-inflammatory panels were used for detection of TNF-α and IL-6 in rat plasma [diluted 1:2 (v/v)]) and human plasma [negative control undiluted, other samples diluted 1:200 (v/v)] according to the manufacturer’s instructions.

[6] = test system: Col1A1 mRNA expression; assay: TGF-β-induced Col1A1 mRNA expression in IPF lung fibroblasts (Taqman); type: cell-based, human; details: IPF-LF, TGF-β 4 ng/mL, 48 h; read-out: IC50 TGF-β-induced Col1 mRNA expression
Procedure: Fibroblasts from donors with IPF (IPF-LF) (Asterand, Detroit, MI, United States) were grown in fibroblast basal medium (CC-3131, Lonza Walkersville, Inc., Walkersville, MD, United States) supplemented with FGM-2 SingleQuot Kit Supplements and Growth Factors (CC-4126, Lonza). Cells were grown in a humidified incubator at 37°C and 5% CO2. All assays were performed at passage 7 or 8. For assay set-up, cells were seeded in fibroblast growth medium plus supplements in assay-relevant densities. For TGF-β-stimulated assays, cells were seeded at 4,500 cells per well in 96-well plates. Proliferation assays were performed in 96-well plates at an initial seeding cell density on day 0 of 2,000 cells per well. After 24-h, the cell culture medium was changed to starvation medium (fibroblast basal medium without supplements). […]
For determination of Col1A1, Col3A1, and FN mRNA expression, IPF-LF cells were stimulated with TGF-β (4 ng/mL) for 48 h. […] Quantitative real-time polymerase chain reactions were set up using the TaqMan™ Fast Advanced Master Mix (Applied Biosystems, Carlsbad, CA, United States) and species-specific gene expression assays: Col1A1 #Hs00164004_m1 FAM, Col3A1 #Hs0094309_m1 FAM, FN #Hs01549976_m1 FAM, 18S #4310893E. […] Fold-change of gene expression was calculated by the Viia7 software (regulation based upon housekeeper).

T1 sequence (Q07343 324-656): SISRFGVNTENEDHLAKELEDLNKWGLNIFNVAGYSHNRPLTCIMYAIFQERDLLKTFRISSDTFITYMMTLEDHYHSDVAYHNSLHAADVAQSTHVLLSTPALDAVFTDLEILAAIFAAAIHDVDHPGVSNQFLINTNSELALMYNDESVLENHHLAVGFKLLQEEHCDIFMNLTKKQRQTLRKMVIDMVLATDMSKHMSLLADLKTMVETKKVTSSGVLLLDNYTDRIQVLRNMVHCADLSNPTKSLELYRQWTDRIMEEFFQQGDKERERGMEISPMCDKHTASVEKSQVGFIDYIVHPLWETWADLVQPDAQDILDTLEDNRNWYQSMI
T2 sequence (Q08493 107-712): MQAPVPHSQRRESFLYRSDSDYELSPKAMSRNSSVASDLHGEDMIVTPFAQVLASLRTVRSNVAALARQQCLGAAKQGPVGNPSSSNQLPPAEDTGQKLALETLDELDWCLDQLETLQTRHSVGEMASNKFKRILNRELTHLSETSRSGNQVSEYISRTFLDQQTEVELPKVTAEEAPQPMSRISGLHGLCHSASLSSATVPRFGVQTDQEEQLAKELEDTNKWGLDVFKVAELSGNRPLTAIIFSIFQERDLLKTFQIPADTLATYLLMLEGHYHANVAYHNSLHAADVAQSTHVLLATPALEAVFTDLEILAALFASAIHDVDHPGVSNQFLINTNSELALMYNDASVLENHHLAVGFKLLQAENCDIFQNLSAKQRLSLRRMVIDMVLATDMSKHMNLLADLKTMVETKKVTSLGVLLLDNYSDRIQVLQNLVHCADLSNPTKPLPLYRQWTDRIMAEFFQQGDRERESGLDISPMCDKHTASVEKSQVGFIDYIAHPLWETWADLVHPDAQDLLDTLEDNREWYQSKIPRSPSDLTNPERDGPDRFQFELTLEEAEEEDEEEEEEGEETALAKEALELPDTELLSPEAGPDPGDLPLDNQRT
T3 sequence (O00408 whole entry): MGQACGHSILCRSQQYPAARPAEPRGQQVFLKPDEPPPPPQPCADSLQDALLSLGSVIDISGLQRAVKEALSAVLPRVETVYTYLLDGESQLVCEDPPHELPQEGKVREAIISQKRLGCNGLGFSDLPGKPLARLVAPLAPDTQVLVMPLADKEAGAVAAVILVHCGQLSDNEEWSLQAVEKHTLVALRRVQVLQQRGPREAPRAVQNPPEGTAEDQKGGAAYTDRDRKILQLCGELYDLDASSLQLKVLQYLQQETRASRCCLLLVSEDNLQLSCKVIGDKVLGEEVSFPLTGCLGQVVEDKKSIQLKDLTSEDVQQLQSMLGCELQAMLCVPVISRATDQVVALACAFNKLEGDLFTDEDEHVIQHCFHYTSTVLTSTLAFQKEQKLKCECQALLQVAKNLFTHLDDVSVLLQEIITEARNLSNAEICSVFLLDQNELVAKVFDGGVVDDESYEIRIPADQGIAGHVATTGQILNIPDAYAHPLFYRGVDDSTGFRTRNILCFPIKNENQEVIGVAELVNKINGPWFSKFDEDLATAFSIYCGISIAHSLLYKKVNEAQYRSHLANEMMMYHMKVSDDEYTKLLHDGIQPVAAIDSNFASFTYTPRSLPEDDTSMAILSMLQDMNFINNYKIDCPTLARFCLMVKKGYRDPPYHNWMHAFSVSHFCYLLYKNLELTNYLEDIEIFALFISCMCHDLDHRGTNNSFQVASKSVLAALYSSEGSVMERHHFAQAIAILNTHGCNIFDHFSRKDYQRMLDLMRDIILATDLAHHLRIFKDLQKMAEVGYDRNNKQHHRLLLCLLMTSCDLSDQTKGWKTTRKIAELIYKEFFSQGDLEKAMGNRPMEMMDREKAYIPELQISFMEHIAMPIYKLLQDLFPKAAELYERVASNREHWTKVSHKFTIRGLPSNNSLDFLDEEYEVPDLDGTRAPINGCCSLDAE

Selectivity for inhibition of PDE4B versus PDE4D [1]: roughly 10 fold
pIC50 ([1]; human recombinant active site fragment, substrate [3H]cAMP, means from n independent experiments, read-out: IC50 PDE4B2): 8.00
pIC50 [2]: 5.06
Inhibition of human PDE2A [3]: did not inhibit
pIC50 [4]: 8.05
Structure (SMILES): [O-][S+]1CCc2nc(N3CCC(c4ncc(Cl)cn4)CC3)nc(NC3(CO)CCC3)c21 (centres unmarked) [BI 1015550]
IL-6 increase [5]: did not result in an IL-6 increase
Maximum inhibition of IL-6 release [5]: 30–40%
pIC50 [6]: 6.57

Reference: paper PMC9065678, “BI 1015550 is a PDE4B Inhibitor and a Clinical Drug Candidate for the Oral Treatment of Idiopathic Pulmonary Fibrosis” (Frontiers in Pharmacology, 2022)
